Values of other authors in US9549925B2, “Lipid-based compositions of antiinfectives for treating pulmonary infections and methods of use thereof” (Insmed Incorporated, priority 2005, dated 2017).

Conditions: free tobramycin, nebulized, nominal dose 300 mg; absorption into the systemic circulation

Q: For `NC[C@H]1O[C@H](O[C@H]2[C@H](O)[C@@H](O[C@H]3O[C@H](CO)[C@@H](O)[C@H](N)[C@H]3O)[C@H](N)C[C@@H]2N)[C@H](N)C[C@@H]1O` [tobramycin, Tobramycin], which “absorption half-life from the lung” value is on record?
A: about 1.5 hr
